Measured values: patent US9247740B2, “Isoxazoline derivatives as insecticidal compounds” (Syngenta Participations AG, priority 2011, dated 2016)

Experiments:
Format in all cases: in vivo
[1] = system: Heliothis virescens (Tobacco Budworm); experiment: Heliothis virescens egg test on artificial diet; conditions: 96 h, 200 ppm (concentration in well 18 ppm), eggs 0-24 h old on artificial diet, egg mortality, larval mortality, growth regulation after 4 days
Excerpt: (§1) This Example illustrates the insecticidal and acaricidal properties of compounds of formula (I).

[2] = system: Tetranychus urticae (Two-Spotted Spider Mite); experiment: Tetranychus urticae leaf disc spray test; conditions: foliar, 192 h, 200 ppm spray on bean leaf discs, mixed ages, egg, larval and adult mortality 8 days later
Excerpt: as §1

[3] = system: Spodoptera littoralis (Egyptian Cotton Leafworm); experiment: Spodoptera littoralis leaf disc spray test; conditions: foliar, 72 h, 200 ppm spray on cotton leaf discs, mortality, feeding behavior, growth regulation 3 days after treatment
Description: This Example illustrates the insecticidal and acaricidal properties of compounds of formula (I). Tests were performed as follows:

[4] = system: Thrips tabaci (Onion Thrips); experiment: Thrips tabaci leaf disc spray test; conditions: foliar, 168 h, 200 ppm spray on sunflower leaf discs, mixed ages, mortality after 7 days
Excerpt: as §1

[5] = system: Diabrotica balteata (Corn Root Worm); experiment: Diabrotica balteata larval test on artificial diet; conditions: 120 h, 200 ppm (concentration in well 18 ppm), L2 larvae, larval mortality and growth regulation after 5 days
Excerpt: as §1

[6] = system: Plutella xylostella (Diamond Back Moth); experiment: Plutella xylostella larval test on artificial diet; conditions: 144 h, 200 ppm (concentration in well 18 ppm), L2 larvae, larval mortality and growth regulation after 6 days
Excerpt: as §1

Measured: pest or weed control at 200 ppm

CCc1cc(C2=NOC(c3cc(Cl)cc(Cl)c3)(C(F)(F)F)C2)ccc1C(=O)NC1CSC1 (stereo not drawn) [Compound B69, 4-[5-(3,5-dichlorophenyl)-5-trifluoromethyl-4H-isoxazol-3-yl]-2-ethyl-N-(thietan-3-yl)benzamide]
≥ 80%: all assays above

Cc1cc(C2=NO[C@@](c3cc(Cl)cc(Cl)c3)(C(F)(F)F)C2)ccc1C(=O)NCC1CS(=O)(=O)C1 [Compound C20, 4-[(5S)-5-(3,5-dichlorophenyl)-5-(trifluoromethyl)-4H-isoxazol-3-yl]-N-[(1,1-dioxothietan-3-yl)methyl]-2-methyl-benzamide]
≥ 80%: all assays above

O=C(NC1CSC1)c1ccc(C2=NOC(c3cc(Cl)cc(Cl)c3)(C(F)(F)F)C2)cc1[N+](=O)[O-] (stereo not drawn) [Compound B56, 4-[5-(3,5-dichlorophenyl)-5-trifluoromethyl-4H-isoxazol-3-yl]-2-nitro-N-(thietan-3-yl)benzamide]
≥ 80%: all assays above

Cc1cc(C2=NOC(c3cc(C(F)(F)F)n(CC(F)F)c3)(C(F)(F)F)C2)ccc1C(=O)NC1CSC1 (stereo not drawn) [Compound C007, 4-[5-[1-(2,2-difluoroethyl)-5-(trifluoromethyl)pyrrol-3-yl]-5-(trifluoromethyl)-4H-isoxazol-3-yl]-2-methyl-N-(thietan-3-yl)benzamide]
≥ 80%: all assays above
